From patent US12435056B2, “N-lipoic-amino acid or peptide, derivatives and their uses” (NEOSTRATA COMPANY, INC., priority 2016, dated 2025) come the findings set out here.

Data set [1] deals with MelanoDerm keratinocyte-melanocyte co-cultures. The data set is described as follows: MelanoDerm survival (MTT assay). In kind it is cell-based, human. The following applies: L20 0.5%, two weeks. How it is done: (§1) MelanoDerms are co-culture models of keratinocytes and melanocytes and were used to test the ability of L20 as an anti-melanogenic compound. MelanoDerms were derived from a normal adult with darkly pigmented skin. These tissues were treated for two weeks on consecutive days with different doses of L20. One set of cultures were used for regression study, where it was taken off L20 after a week of treatment. Two weeks after treatment, the tissues were tested for melanin content and cell viability (FIG. 2a). […] The melanin content was assayed using a melanin standard curve.
(§2) MelanoDerm Study: MelanoDerms study was performed as per company instructions (Mattek, Ashland, MA). MelanoDerm tissues were derived from darkly pigmented skin type. The tissues were stabilized for 24 h and then treated with different doses of L20 (25 ul) in WEP modified vehicle. The MelanoDerms were treated for 2 weeks on consecutive days. Microscopic images were taken every other day. After two weeks, MTT assay was performed using Cell Titer 96® Aqueous One Solution and melanin content was assayed as mentioned in the protocol.

In data set [2] the test system is procollagen in EpiDerm-FT fibroblast-keratinocyte co-cultures. The data set is described as follows: Procollagen ELISA in EpiDerm-FT tissue. In kind it is cell-based, human. The following applies: L20 1% in WEP vehicle, 48 h, p<0.02, FIG. 3. As for the experimental part: Dermal fibroblast plays an important role in photo-aging and skin homeostasis. We determined if L20 had any anti-aging benefit using dermal fibroblasts. Normal human EpiDerm-FT tissue was used in the study. The Epiderm-FT consists of a fully differentiated epidermal and dermal skin layers. It also has 10-15 layers of stratum corneum and also basal, spinous and granular layers. The tissues were treated with vehicle control and L20 (1%), for 48 h. The tissues were used to measure the expression of procollagen using ELISA assay. The levels of procollagen were normalized to total protein.
L20 was prepared as 1% solution in WEP vehicle consisting of water, ethanol and propylene glycol at native pH. […] The tissue samples were digested using cell lysis buffer and the expression levels of procollagen protein were determined. Procollagen was quantified using standard ELISA technique (Takara Bio Inc.).
Epiderm Study: Epiderm-FT (Mattek, Ashland, MA) was used for the study, derived from neonatal foreskin. […] The cell lysate was analyzed for procollagen using ELISA (Takara, Shiga, Japan) as per instructions and normalized to total protein.

Data set [3] concerns normal neonatal human epidermal melanocytes. The data set can be described thus: Melanin reduction assay in melanocyte cultures. In kind it is cell-based. As for the experimental part: (§3) L20 is a glycinamide derivative of lipoic acid and was treated on normal human epidermal melanocytes at different doses for 48 h. Doses more than 0.05% L20 appeared to have moderate toxicity (FIG. 1a). We determined the ability of L20 to inhibit melanin synthesis in melanocyte cultures. L20 was used at a non-toxic dose of 0.001% for 7 days (FIG. 1b), their treatment was carried on consecutive days. After a week of treatment, the melanin was extracted and quantified using a melanin standard curve.
Melanin Reduction assay: Normal human epidermal melanocytes were treated with control or L20 for 7 days, and L20 was replaced on consecutive days. Cells were collected on the 7th day and maintained in Solvable (Perkin Elmer, Akron, OH) overnight at 65 degrees overnight. In parallel, melanin (Sigma, St. Louis, MO) standards were made in Solvable and treated similarly to the samples. Melanin content was then quantified colorimetrically using a Tecan microplate reader at 490 nm.

Data set [4] deals with MelanoDerm keratinocyte-melanocyte co-cultures. The data set is described as follows: MelanoDerm study: melanin content and skin lightening in 3D keratinocyte-melanocyte co-cultures. In kind it is cell-based, human. The following applies: for decrease of melanin content compared to control: darkly pigmented MelanoDerm. As for the experimental part: as §1, §2
The test system of data set [5] is normal human epidermal melanocytes. The data set can be described thus: Cell viability / L20 toxicity assay (Cell Titer 96 Aqueous One Solution). In kind it is cell-based. How it is done: as §3
Cell culture: Normal human epidermal melanocytes (Lonza, Walkersville, MA) were grown in special melanocyte media MGM4 with supplements (Lonza, Walkersville, MA). Cells were plated and treated with different doses of L20 for 48 h. L20 was initially dissolved in DMSO (100%) and serial dilution were made in media. The stock was diluted a 1000 fold, to have less than […] DMSO in final solution. Microscopic images were taken using 10× magnification. Normal human dermal fibroblasts (Lonza, Walkersville, MA) were grown in special fibroblast growth media (Lonza, Walkersville, MA). […] To test cell viability, Cell Titer 96® Aqueous One Solution Cell Proliferation Assay was used and absorbance was measured colorimetrically at 490 nm using Tecan microplate reader.

“Also recorded” adds a separate entry of the source.

Take `NC(=O)CNC(=O)CCCCC1CCSS1` (centres unmarked) [L20, N-lipoic glycinamide]: the “toxicity in MelanoDerm (cell viability)” value in data set [1] is “non-toxic”. In addition, in data set [2], the “procollagen production versus vehicle control, normalized to total protein” value was “significantly increased; also recorded: significantly induces procollagen synthesis; also recorded: induced pro-collagen”. Also, the “melanin extracted and quantified from melanocyte cultures” value in data set [3] (L20 0.001%, 7 days, versus untreated and DMSO control, FIG. 1c) is on record as “no detectable melanin; also recorded: did not have any measureable melanin”. Besides, the “melanin synthesis” value in data set [3] (normal neonatal human epidermal melanocytes, FIGS. 1a-c) was “significantly blocks melanin synthesis”; in data set [4] (normal adult human Melanoderm 3D co-cultures, FIGS. 2a-d) it was “significantly blocks melanin synthesis”. In addition, in data set [4] (0.5% and 1%, two weeks, FIG. 2b), the “visual skin-lightening effect on melanoderms” value is listed as “significant skin-lightening effect”. In addition, the “regression study: reversibility of melanin inhibition after removal of L20” value in data set [4] (0.5% dose group, taken off L20 after one week of treatment) is “reversible inhibition of melanin synthesis”. In data set [4] (24 h after the initial treatment), the “microscopic observation of melanin” value is on record as “decreased melanin; also recorded: inhibited melanin synthesis”. In addition, the “decrease of melanin content compared to control” value in data set [4] (L20 0.1%, two weeks) was 44%; in data set [4] (L20 0.5%, two weeks) it was 56%; in data set [4] (L20 1%, two weeks) it was 60%. In data set [5] (different doses, absorbance at 490 nm), the “non-toxic dose in L20 toxicity assay” value is listed as no more than 0.001%. For the same compound, the “doses with moderate toxicity” value in data set [5] (human, 48 h) is “more than 0.05%”.
Consider `O=c1cc(CO)occ1O` [Kojic Acid, reference compound], for which the “decrease of melanin content” value in data set [4] (positive control, dose not given, two weeks, MelanoDerm) was found to be 27%.
